For 17 molecules, TGI results are on record in PubChem BioAssay (NCI).

Common to all, as to experiment: inhibition of tumour cell growth, NCI panel, 48 h
The subject of assay [1] is KM12 colon.
Assay [2] has as its system COLO 205 colon.
Assay [3] deals with UACC-62 melanoma.
In assay [4] the test system is NCI-H23 lung.
In assay [5] the test system is SF-295 CNS.
The test system of assay [6] is MDA-MB-435.
Assay [7] has as its system HOP-62 NSCLC.
Assay [8] concerns HOP-92 NSCLC.
Assay [9] has as its system U251 CNS.
Assay [10] concerns SF-539 CNS.
Assay [11] has as its system T-47D breast.
The test system of assay [12] is MOLT-4 leukemia.
In assay [13] the test system is OVCAR-4 ovarian.
In assay [14] the test system is RXF 393 renal.

The structures appear in SMILES notation.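 A five-concentration, 48-hour dose response in 96-well plates underlies each endpoint, interpolated linearly between surrounding concentrations. The concentration for full growth arrest is given as TGI.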 Where a SMILES comes first, the peptide text is derived from it. The star is where a group is joined. Cbz = O=C(OCc1ccccc1)*

With `O=C(n1c(=O)n(-c2ccc(Cl)cc2)c(=O)n1C(=O)C(Cl)(Cl)Cl)C(Cl)(Cl)Cl`, the TGI in assay [1], in assay [2], in [3], in assay [4], in [5] and in assay [6] was > 100 µM throughout. Moreover, the TGI in assay [7], in assay [8], in [9], in assay [10], in assay [11] and in [12] was > 100 µM in each case. Also, the TGI in assay [13] was > 100 µM.
Regarding `COc1cc(C2c3cc4c(cc3OC(NCc3ccccc3)C2C)OCO4)cc(OC)c1OC` (stereo unspecified), the TGI in [1] was 5.69 µM; in [2] it was 0.726 µM; in assay [3], 14.1 µM; in assay [4], > 48.2 µM; in assay [5], 0.673 µM; in assay [7], > 64 µM. For the same molecule, the TGI is 20.3 µM in assay [8]; 21.2 µM in assay [9]; 0.817 µM in assay [10]; 31.8 µM in [12]; > 100 µM in [13].
As for `CCOC(=O)C(CC(=O)OC)NC(=O)C(CC(=O)OC)NC(=O)C(CC(=O)OC)NC(=O)C(CC(=O)OC)NC(=O)OCc1ccccc1` (stereo unspecified) (Cbz-D(OMe)D(OMe)D(OMe)D(OMe)-OEt; configuration not given here), the TGI in [1], in assay [2], in assay [3], in assay [4], in assay [7] and in assay [14] was > 100 µM in each case. For the same molecule, the TGI in assay [8], in [9], in [11] and in [12] was > 100 µM in each case.
In the case of `Nc1ccccc1OCc1cc(=O)c(OCc2ccccc2)co1`, the TGI was > 100 µM in [1]; 44.9 µM in [2]; 4.49 µM in assay [3]; > 100 µM in [4]; 95.1 µM in [5]; > 100 µM in [6]. In addition, the TGI in assay [7] is > 100 µM; in assay [8], 36.4 µM; in assay [9] it was > 100 µM; in assay [10], 65.1 µM; in [11], > 100 µM; in [12], > 100 µM. Besides, the TGI in [13] is > 100 µM.
In the case of `COC(=O)CC1(O)C(/C=C/c2ccccc2)C(C(=O)OC)C(=O)C(C(=O)OC)C1C(=O)OC` (stereo unspecified), the TGI in assay [1], in assay [2], in assay [3], in assay [4], in assay [5] and in assay [6] was > 100 µM each time. The TGI in [7], in [14], in assay [8], in assay [9], in assay [10] and in [12] was > 100 µM in each case. Besides, in assay [13], the TGI was > 100 µM.
`Cc1csc2nc3[nH]ncc3c(=O)n12`: the TGI in [1], in assay [2], in assay [3], in assay [4], in [5] and in assay [6] was > 100 µM each time. Besides, the TGI in [7], in [9], in assay [10], in assay [11], in [12] and in assay [13] was > 100 µM in each case.
`COc1cc(C2(O)c3ccccc3C3=NCCN32)cc(OC)c1OC` (stereo unspecified): the TGI in [1], in assay [2], in assay [3], in assay [4], in assay [5] and in [6] was > 100 µM throughout. Moreover, the TGI in assay [7], in assay [8], in assay [9], in assay [11], in [12] and in [13] was > 100 µM in each case.
Turning to `COc1ccc(NS(=O)c2ccc(OC)cc2)cc1` (stereo unspecified), the TGI in [1] was 24.1 µM; in [2], > 100 µM; in [3] it was 66.2 µM; in assay [4], > 100 µM; in [5] it was > 100 µM; in assay [6] it was > 100 µM. The TGI was > 100 µM in assay [7]; 34.2 µM in [9]; 32.5 µM in assay [10]; 82.8 µM in assay [11]; > 100 µM in assay [12]; > 100 µM in assay [13].
Regarding `O=S1c2ccccc2SCSc2ccccc21`, the TGI in [1], in [2], in assay [3], in [4], in assay [5] and in assay [7] was > 100 µM throughout. Moreover, the TGI in assay [14], in assay [8], in assay [9], in assay [10], in assay [11] and in assay [12] was > 100 µM throughout. Moreover, in assay [13], the TGI is > 100 µM.
With `COc1ccc(/C(C)=N/NC(=O)c2ccncc2)cc1OC`, the TGI in assay [1], in assay [2], in assay [3], in [4], in [7] and in assay [8] was > 10 µM in each case. Further, the TGI in [9], in [10], in [11], in [12] and in [13] was > 10 µM in each case.
For `Cc1ccc(CCCCCOc2ccc(C3=NCCO3)cc2)s1`, the TGI in assay [1], in assay [2], in assay [3], in assay [4], in [5] and in assay [6] was > 100 µM each time. For the same molecule, the TGI in assay [7], in assay [14], in assay [9], in [11], in assay [12] and in assay [13] was > 100 µM each time.
`O=C(/C=C(\O)c1ccc(Cl)cc1)C(=O)NN=C(c1ccccc1)c1ccccc1`: the TGI is > 100 µM in assay [1]; 74.4 µM in assay [2]; > 100 µM in assay [3]; > 100 µM in assay [4]; > 100 µM in [5]; > 100 µM in assay [6]. Besides, the TGI was > 100 µM in assay [7]; > 100 µM in assay [14]; > 100 µM in [9]; > 100 µM in assay [10]; > 100 µM in assay [11]; 95.1 µM in assay [12]. The TGI in [13] is > 100 µM.
`O=C1NC(=NC2CCCCC2)C2(CCN(CCCC3(c4ccc(F)cc4)OCCO3)CC2)N1c1ccccc1`: the TGI is 38.9 µM in [1]; 38.4 µM in [2]; 34.3 µM in assay [4]; 35.1 µM in assay [5]; 42.5 µM in assay [6]; 31.8 µM in assay [7]. In addition, the TGI in assay [14] was determined as 31.1 µM; in assay [9] it was 30.2 µM; in assay [10] it was 30.7 µM; in assay [11], 53.2 µM; in [12], 36.7 µM; in assay [13], 50.2 µM.
Turning to `COc1cccc(C[C@H]2COC(=O)[C@]2(O)Cc2cccc(OC)c2)c1`, the TGI in assay [1], in [2], in [3], in assay [4], in assay [5] and in [6] was > 100 µM throughout. Moreover, the TGI in [7] is > 100 µM; in assay [8], > 100 µM; in assay [9], > 100 µM; in assay [10], > 100 µM; in assay [11] it was 67.9 µM; in assay [12] it was > 100 µM. The TGI in assay [13] was > 100 µM.
For `Cc1cc(C)c(NS(=O)c2cccc(Cl)c2)c(C)c1` (stereo unspecified), the TGI in assay [1], in assay [2], in assay [4], in [5], in [6] and in [7] was > 100 µM in each case. Further, the TGI in assay [14], in [8], in assay [9], in assay [10] and in [12] was > 100 µM each time.
As for `O=C(NCC(C(=O)OCc1ccccc1)C(=O)OCc1ccccc1)OCc1ccccc1`, the TGI in [1], in [2], in assay [3], in assay [4], in assay [5] and in assay [6] was > 100 µM in each case. Also, the TGI in assay [7], in assay [14], in assay [8], in [9], in assay [10] and in assay [12] was > 100 µM each time.
On to `NS(=O)(=O)c1nnc(/N=C(/CCC(=O)O)C(=O)O)s1`, for which the TGI in assay [1], in [2], in assay [3], in assay [4], in [5] and in assay [6] was > 100 µM each time. In addition, the TGI in assay [7], in assay [8], in assay [9], in [10], in assay [11] and in assay [12] was > 100 µM each time. In addition, in assay [13], the TGI is > 100 µM.
